Measurements taken from patent US9980943B2, “Methods of treating muscular dystrophy” (BOARD OF REGENTS OF THE NEVADA SYSTEM OF HIGHER EDUCATION, …, priority 2013, dated 2018).

What was measured:
Type in all cases: cell-based, mouse
[1] = test system: α7 integrin (LacZ reporter in α7βgal+/− myoblasts); assay: Myoblast α7+/LacZ integrin FDG assay (Burkin assay in myoblasts, 96-well); settings: 96-well; for Burkin Assay in Myoblasts, value relative to DMSO: SU9516 analogs, N=3-6; for Burkin Assay in Myoblasts, signal relative to DMSO: α7+/LacZ myoblasts
[2] = test system: α7 integrin (LacZ reporter in α7+/LacZ myotubes); assay: Myotube α7 integrin FDG assay (Burkin assay in myotubes, 96-well); settings: for Burkin Assay in Myotubes, value relative to DMSO: SU9516 analogs, 96-well, N=3-6
[3] = test system: β-galactosidase in CMV-LacZ C2C12 myoblasts; assay: CMV-LacZ secondary screen in C2C12 myoblasts (β-Gal stabilizing assay); settings: for CMV-LACZ in Myoblasts, value relative to DMSO: SU9516 analogs, C2C12 CMV-LacZ, N=2; for CMV-LACZ in Myoblasts (β-galactosidase activity relative to DMSO): CMV-LacZ C2C12 myoblasts
How it was run: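 First, C2C12 myoblasts were transfected with a linearized CMV-LACZ vector and clonal lines selected by FDG β-gal assay. Then cells were exposed to compounds at 0.5, 1, 5, 10, 20 and 40 μM in 96-well format, two replicates each, and β-gal measured.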

[4] = test system: β-galactosidase in CMV-LacZ C2C12 myotubes; assay: CMV-LacZ secondary screen in C2C12 myotubes (β-Gal stabilizing assay); settings: for CMV-LACZ in Myotubes, value relative to DMSO: SU9516 analogs, C2C12 CMV-LacZ, N=2; for CMV-LACZ in Myotubes, signal relative to DMSO: C2C12 CMV-LacZ myotubes, fold relative to DMSO
How it was run: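 CMV-LacZ C2C12 line (clonal, FDG-screened); myoblasts/myotubes dosed 0.5–40 μM (0.5, 1, 5, 10, 20, 40 μM); n=2 per point; β-gal stabilization read-out.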

## COc1ccc(C(=O)/C=C2/C(=O)Nc3ccccc32)cc1 [MLS001163848-01]
[1]; 0.5 uM
  Burkin Assay in Myoblasts, value relative to DMSO: 1.002
[1]; 1 uM
  Burkin Assay in Myoblasts, value relative to DMSO: 0.8906
[1]; 5 uM
  Burkin Assay in Myoblasts, value relative to DMSO: 0.4854
[1]; 10 uM
  Burkin Assay in Myoblasts, value relative to DMSO: 0.3141
[1]; 20 uM
  Burkin Assay in Myoblasts, value relative to DMSO: 0.297
[1]; 40 uM
  Burkin Assay in Myoblasts, value relative to DMSO: 0.1444
[2]; 0.5 uM
  Burkin Assay in Myotubes, value relative to DMSO: 1.0964
[2]; 1 uM
  Burkin Assay in Myotubes, value relative to DMSO: 1.045
[2]; 5 uM
  Burkin Assay in Myotubes, value relative to DMSO: 0.9587
[2]; 10 uM
  Burkin Assay in Myotubes, value relative to DMSO: 0.7469
[2]; 20 uM
  Burkin Assay in Myotubes, value relative to DMSO: 0.6878
[2]; 40 uM
  Burkin Assay in Myotubes, value relative to DMSO: 0.4876
[3]; 0.5 uM
  CMV-LACZ in Myoblasts, value relative to DMSO: 1.1146
[3]; 1 uM
  CMV-LACZ in Myoblasts, value relative to DMSO: 0.9620
[3]; 5 uM
  CMV-LACZ in Myoblasts, value relative to DMSO: 0.9336
[3]; 10 uM
  CMV-LACZ in Myoblasts, value relative to DMSO: 1.0762
[3]; 20 uM
  CMV-LACZ in Myoblasts, value relative to DMSO: 2.1030
[3]; 40 uM
  CMV-LACZ in Myoblasts, value relative to DMSO: 2.2215
[4]; 0.5 uM
  CMV-LACZ in Myotubes, value relative to DMSO: 1.2133
[4]; 1 uM
  CMV-LACZ in Myotubes, value relative to DMSO: 0.9638
[4]; 5 uM
  CMV-LACZ in Myotubes, value relative to DMSO: 1.1937
[4]; 10 uM
  CMV-LACZ in Myotubes, value relative to DMSO: 4.2586
[4]; 20 uM
  CMV-LACZ in Myotubes, value relative to DMSO: 6.7729
[4]; 40 uM
  CMV-LACZ in Myotubes, value relative to DMSO: 6.8624

## C#CC1(O)CCC2C3CCC4=C/C(=N/OCC(=O)NCC(=O)NC(C(=O)O)C(C)C)CC[C@]4(C)C3CC[C@@]21C (stereo partly drawn) [MLS001163859-01]
[1]; 0.5 uM
  Burkin Assay in Myoblasts, signal relative to DMSO: 0.9786
[1]; 1 uM
  Burkin Assay in Myoblasts, signal relative to DMSO: 1.09
[1]; 5 uM
  Burkin Assay in Myoblasts, signal relative to DMSO: 1.055
[1]; 10 uM
  Burkin Assay in Myoblasts, signal relative to DMSO: 1.024
[1]; 20 uM
  Burkin Assay in Myoblasts, signal relative to DMSO: 0.9208
[1]; 40 uM
  Burkin Assay in Myoblasts, signal relative to DMSO: 0.928
[2]; 0.5 uM
  Burkin Assay in Myotubes, α7 integrin LacZ reporter signal relative to DMSO: 1.132
[2]; 1 uM
  Burkin Assay in Myotubes, α7 integrin LacZ reporter signal relative to DMSO: 1.281
[2]; 5 uM
  Burkin Assay in Myotubes, α7 integrin LacZ reporter signal relative to DMSO: 1.385
[2]; 10 uM
  Burkin Assay in Myotubes, α7 integrin LacZ reporter signal relative to DMSO: 1.249
[2]; 20 uM
  Burkin Assay in Myotubes, α7 integrin LacZ reporter signal relative to DMSO: 1.118
[2]; 40 uM
  Burkin Assay in Myotubes, α7 integrin LacZ reporter signal relative to DMSO: 1.058
[3]; 0.5 uM
  CMV-LACZ in Myoblasts (β-galactosidase activity relative to DMSO): 1.1113
[3]; 1 uM
  CMV-LACZ in Myoblasts (β-galactosidase activity relative to DMSO): 1.1684
[3]; 5 uM
  CMV-LACZ in Myoblasts (β-galactosidase activity relative to DMSO): 1.2009
[3]; 10 uM
  CMV-LACZ in Myoblasts (β-galactosidase activity relative to DMSO): 1.1812
[3]; 20 uM
  CMV-LACZ in Myoblasts (β-galactosidase activity relative to DMSO): 0.7593
[3]; 40 uM
  CMV-LACZ in Myoblasts (β-galactosidase activity relative to DMSO): 0.8104
[4]; 0.5 uM
  CMV-LACZ in Myotubes, signal relative to DMSO: 0.8756
[4]; 1 uM
  CMV-LACZ in Myotubes, signal relative to DMSO: 1.1326
[4]; 5 uM
  CMV-LACZ in Myotubes, signal relative to DMSO: 1.0856
[4]; 10 uM
  CMV-LACZ in Myotubes, signal relative to DMSO: 1.1727
[4]; 20 uM
  CMV-LACZ in Myotubes, signal relative to DMSO: 1.0965
[4]; 40 uM
  CMV-LACZ in Myotubes, signal relative to DMSO: 1.2482

## COc1ccc(C(=O)/C=C2/C(=O)Nc3ccccc32)cc1OC [MLS001163860-01]
[1]; 0.5 uM
  Burkin Assay in Myoblasts, value relative to DMSO: 0.9494
[1]; 1 uM
  Burkin Assay in Myoblasts, value relative to DMSO: 0.8457
[1]; 5 uM
  Burkin Assay in Myoblasts, value relative to DMSO: 0.5793
[1]; 10 uM
  Burkin Assay in Myoblasts, value relative to DMSO: 0.4922
[1]; 20 uM
  Burkin Assay in Myoblasts, value relative to DMSO: 0.1722
[1]; 40 uM
  Burkin Assay in Myoblasts, value relative to DMSO: 0.2347
[2]; 0.5 uM
  Burkin Assay in Myotubes, value relative to DMSO: 1.009
[2]; 1 uM
  Burkin Assay in Myotubes, value relative to DMSO: 0.9404
[2]; 5 uM
  Burkin Assay in Myotubes, value relative to DMSO: 0.9223
[2]; 10 uM
  Burkin Assay in Myotubes, value relative to DMSO: 1.138
[2]; 20 uM
  Burkin Assay in Myotubes, value relative to DMSO: 0.862
[2]; 40 uM
  Burkin Assay in Myotubes, value relative to DMSO: 1.209
[3]; 0.5 uM
  CMV-LACZ in Myoblasts, value relative to DMSO: 0.9350
[3]; 1 uM
  CMV-LACZ in Myoblasts, value relative to DMSO: 0.8230
[3]; 5 uM
  CMV-LACZ in Myoblasts, value relative to DMSO: 0.9610
[3]; 10 uM
  CMV-LACZ in Myoblasts, value relative to DMSO: 1.1417
[3]; 20 uM
  CMV-LACZ in Myoblasts, value relative to DMSO: 0.3425
[3]; 40 uM
  CMV-LACZ in Myoblasts, value relative to DMSO: 0.6488
[4]; 0.5 uM
  CMV-LACZ in Myotubes, value relative to DMSO: 1.0352
[4]; 1 uM
  CMV-LACZ in Myotubes, value relative to DMSO: 1.1562
[4]; 5 uM
  CMV-LACZ in Myotubes, value relative to DMSO: 1.1250
[4]; 10 uM
  CMV-LACZ in Myotubes, value relative to DMSO: 1.2757
[4]; 20 uM
  CMV-LACZ in Myotubes, value relative to DMSO: 1.3880
[4]; 40 uM
  CMV-LACZ in Myotubes, value relative to DMSO: 1.4490
